Where two headings read alike, the source gives them in different places.
Experiments:
[1] = system: P. berghei strain GFP-ANKA; test: In vivo antimalarial efficacy study in infected NMRI mice; details: Plasmodium berghei; female NMRI mice infected with P. berghei GFP-ANKA; single oral dose of 100 mg/kg 24 h after infection; parasitemia 48 h after drug treatment (day 3); read-out: Activity (inhibition of parasitemia) expressed as a percent relative to the control group
Protocol: In Vivo Antimalarial Efficacy Studies
In vivo antimalarial activity is assessed for groups of three female NMRI mice (20-22 g) intravenously infected on day 0 with P. berghei strain GFP-ANKA (0.2 mL heparinized saline suspension containing 2×10^7 parasitized erythrocytes). In control mice, parasitemia typically rises to approximately 40% by day 3 after infection. Compounds are formulated in Tween 80/ethanol (7%/3%) usually at concentrations of 10 mg/mL. Compounds are administered in a volume of 10 mL/kg orally as single doses (1×100 mg/kg, 24 h after infection). 48 h after drug treatment (day 3 post-infection), 1 μl tail blood is taken, resuspended in 1 mL PBS buffer and parasitemia determined with a FACScan (Becton Dickinson) by counting 100′000 red blood cells. Activity is calculated as the difference between the mean value of the control group and treated groups expressed as a percent relative to the control group.

[2] = system: erythrocytic stages of P. falciparum NF54; test: Plasmodium falciparum in vitro assay, [3H] hypoxanthine incorporation; format: cell-based; details: Plasmodium falciparum, Erythrocyte, 72 h, P. falciparum NF54 in human red blood cells, 48 h + 24 h incubation
Outline: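 Cultures in human red blood cells (2.5% hematocrit, 0.3% parasitemia) were exposed to serially diluted compounds for 48 h at 37° C. under 4% CO2, 3% O2, 93% N2. [3H] hypoxanthine (0.5 μCi) was added for a further 24 h, incorporation counted by scintillation, and IC50 derived from sigmoidal inhibition curves.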

[3] = screening medium with Albumax (5 g/L), read-out: IC50 on NF54 (with Albumax)
[4] = screening medium with human serum (50% final concentration), read-out: IC50 on NF54 (with 50% Serum)

Row | Structure (SMILES) | inhibition in vivo at 100 mg/kg [1] [%] | IC50 [2, 3] [nM] | IC50 [2, 4] [nM]
1 | CC(=O)N1CCN(c2ccc(CN(C(=O)C=Cc3ccc(OC(F)F)cc3)[C@@H](Cc3ccccc3)C(=O)N3CCN(Cc4ccc(Cl)cc4)CC3)cc2)CC1 [Example 41, (S)-N-[4-(4-Acetyl-piperazin-1-yl)-benzyl]-N-{1-benzyl-2-[4-(4-chloro-benzyl)-piperazin-1-yl]-2-oxo-ethyl}-3-(4-difluoromethoxy-phenyl)-acrylamide] | 71 | 2.9 | 12.5
2 | CC(=O)N1CCN(c2ccc(CN(C(=O)C=Cc3ccc(C(C)C)cc3)[C@@H](Cc3ccccc3)C(=O)N3CCN(Cc4ccc(Cl)cc4)CC3)cc2)CC1 [Example 42, (S)-N-[4-(4-Acetyl-piperazin-1-yl)-benzyl]-N-{1-benzyl-2-[4-(4-chloro-benzyl)-piperazin-1-yl]-2-oxo-ethyl}-3-(4-isopropyl-phenyl)-acrylamide] | 97.3 | 1.7 | 13.7
3 | CC(=O)N1CCN(c2ccc(CN(C(=O)C=Cc3ccc(C(C)(C)C)cc3)[C@@H](Cc3ccccc3)C(=O)N3CCN(Cc4ccc(Cl)cc4)CC3)cc2)CC1 [Example 43, (S)-N-[4-(4-Acetyl-piperazin-1-yl)-benzyl]-N-{1-benzyl-2-[4-(4-chloro-benzyl)-piperazin-1-yl]-2-oxo-ethyl}-3-(4-tert-butyl-phenyl)-acrylamide] | 98.7 | 1.1 | 13.5
4 | CC(=O)N1CCN(c2ccc(CN(C(=O)C=Cc3ccc(OC(C)C)cc3)[C@@H](Cc3ccccc3)C(=O)N3CCN(Cc4ccc(S(C)(=O)=O)cc4)CC3)cc2)CC1 [Example 44, (S)-N-[4-(4-Acetyl-piperazin-1-yl)-benzyl]-N-{1-benzyl-2-[4-(4-(methylsulfonyl)-benzyl)-piperazin-1-yl]-2-oxo-ethyl}-3-(4-isopropoxyphenyl)-acrylamide] | 99 | 0.4 | 2.8
5 | CC(=O)N1CCN(c2ccc(CN(C(=O)C=Cc3ccc(C(C)(C)C)cc3)[C@@H](Cc3ccccc3)C(=O)N3CCN(Cc4ccc(S(C)(=O)=O)cc4)CC3)cc2)CC1 [Example 45, (S)-N-[4-(4-Acetyl-piperazin-1-yl)-benzyl]-N-{1-benzyl-2-[4-(4-(methylsulfonyl)-benzyl)-piperazin-1-yl]-2-oxo-ethyl}-3-(4-tert-butyl-phenyl)-acrylamide] | 99.4 | 0.2 | 1.8
6 | CCCOc1ccc(C=CC(=O)N(Cc2ccc(N3CCN(C(C)=O)CC3)cc2)[C@@H](Cc2ccccc2)C(=O)N2CCN(Cc3ccc(S(C)(=O)=O)cc3)CC2)cc1 [Example 46, (S)-N-[4-(4-Acetyl-piperazin-1-yl)-benzyl]-N-{1-benzyl-2-[4-(4-(methylsulfonyl)-benzyl)-piperazin-1-yl]-2-oxo-ethyl}-3-(4-propoxyphenyl)-acrylamide] | 98.9 | 0.4 | 1.1
7 | CC(=O)N1CCN(c2ccc(CN(C(=O)C=Cc3ccc(C(F)(F)F)cc3)[C@@H](Cc3ccccc3)C(=O)N3CCN(Cc4ccc(S(C)(=O)=O)cc4)CC3)cc2)CC1 [Example 47, (S)-N-(4-(4-acetylpiperazin-1-yl)benzyl)-N-(1-(4-(4-(methylsulfonyl)benzyl)piperazin-1-yl)-1-oxo-3-phenylpropan-2-yl)-3-(4-(trifluoromethyl)phenyl)acrylamide] | 98.4 | 0.5 | 3.5
8 | CCCOc1ccc(C=CC(=O)N(Cc2ccc(N3CCN(C(C)=O)CC3)cc2)[C@@H](Cc2ccccc2)C(=O)N2CCN(Cc3ccc(S(=O)(=O)CC)cc3)CC2)cc1 [Example 48, (S)-N-[4-(4-Acetyl-piperazin-1-yl)-benzyl]-N-{1-benzyl-2-[4-(4-(ethylsulfonyl)-benzyl)-piperazin-1-yl]-2-oxo-ethyl}-3-(4-propoxyphenyl)-acrylamide] | 99 | 0.5 | 1.6
9 | CCS(=O)(=O)c1ccc(CN2CCN(C(=O)[C@H](Cc3ccccc3)N(Cc3ccc(N4CCN(C(C)=O)CC4)cc3)C(=O)C=Cc3ccc(C(F)(F)F)cc3)CC2)cc1 [Example 49, (S)-N-(4-(4-acetylpiperazin-1-yl)benzyl)-N-(1-(4-(4-(ethylsulfonyl)benzyl)piperazin-1-yl)-1-oxo-3-phenylpropan-2-yl)-3-(4-(trifluoromethyl)phenyl)acrylamide] | 98.6 | 0.8 | 3.1
10 | CC(=O)N1CCN(c2ccc(CN(C(=O)C=Cc3ccc(C(F)(F)F)cc3)[C@@H](Cc3ccccc3)C(=O)N3CCN(Cc4ccc(N(C)CCO)cc4)CC3)cc2)CC1 [Example 50, (S)-N-[4-(4-Acetyl-piperazin-1-yl)-benzyl]-N-[1-benzyl-2-(4-{4-[(2-hydroxy-ethyl)-methyl-amino]-benzyl}-piperazin-1-yl)-2-oxo-ethyl]-3-(4-trifluoromethyl-phenyl)-acrylamide] | 98 | 1.6 | 9.3
11 | COc1ccc(C=CC(=O)N(Cc2ccc(N3CCN(C(C)=O)CC3)cc2)[C@@H](Cc2ccccc2)C(=O)N2CCN(Cc3ccc(N(C)CCO)cc3)CC2)cn1 [Example 52, (S)-N-[4-(4-Acetyl-piperazin-1-yl)-benzyl]-N-[1-benzyl-2-(4-{4-[(2-hydroxy-ethyl)-methyl-amino]-benzyl}-piperazin-1-yl)-2-oxo-ethyl]-3-(6-methoxy-pyridin-3-yl)-acrylamide] | < 40 | 10 | 33
12 | CCOc1ccc(C=CC(=O)N(Cc2ccc(N3CCN(C(C)=O)CC3)cc2)[C@@H](Cc2ccccc2)C(=O)N2CCN(Cc3ccc(N(C)CCO)cc3)CC2)cn1 [Example 53, (S)-N-[4-(4-Acetyl-piperazin-1-yl)-benzyl]-N-[1-benzyl-2-(4-{4-[(2-hydroxy-ethyl)-methyl-amino]-benzyl}-piperazin-1-yl)-2-oxo-ethyl]-3-(6-ethoxy-pyridin-3-yl)-acrylamide] | 52.3 | 4.3 | 12.4
13 | CCOc1ccc(C=CC(=O)N(Cc2ccc(N3CCN(C(C)=O)CC3)cc2)[C@@H](Cc2ccccc2)C(=O)N2CCN(Cc3ccc(N(C)CCO)cc3)CC2)cc1 [Example 54, (S)-N-[4-(4-Acetyl-piperazin-1-yl)-benzyl]-N-[1-benzyl-2-(4-{4-[(2-hydroxy-ethyl)-methyl-amino]-benzyl}-piperazin-1-yl)-2-oxo-ethyl]-3-(4-ethoxy-phenyl)-acrylamide] | 93.7 | 1.6 | 5.9
14 | CC(=O)N1CCN(c2ccc(CN(C(=O)C=Cc3ccc(S(C)(=O)=O)cc3)[C@@H](Cc3ccccc3)C(=O)N3CCN(Cc4ccc(N(C)CCO)cc4)CC3)cc2)CC1 [Example 55, (S)-N-[4-(4-Acetyl-piperazin-1-yl)-benzyl]-N-[1-benzyl-2-(4-{4-[(2-hydroxy-ethyl)-methyl-amino]-benzyl}-piperazin-1-yl)-2-oxo-ethyl]-3-(4-methanesulfonyl-phenyl)-acrylamide] | < 40 | 7.5 | 14.8
15 | CCCOc1ccc(C=CC(=O)N(Cc2ccc(N3CCN(C(C)=O)CC3)cc2)[C@@H](Cc2ccccc2)C(=O)N2CCN(Cc3ccc(N(C)CCO)cc3)CC2)cc1 [Example 57, (S)-N-[4-(4-Acetyl-piperazin-1-yl)-benzyl]-N-[1-benzyl-2-(4-{4-[(2-hydroxy-ethyl)-methyl-amino]-benzyl}-piperazin-1-yl)-2-oxo-ethyl]-3-(4-propoxy-phenyl)-acrylamide] | 98.2 | 1.7 | 5.1
16 | CC(=O)N1CCN(c2ccc(CN(C(=O)C=Cc3ccc(OC(C)C)cc3)[C@@H](Cc3ccccc3)C(=O)N3CCN(Cc4ccc(N(C)CCO)cc4)CC3)cc2)CC1 [Example 58, (S)-N-[4-(4-Acetyl-piperazin-1-yl)-benzyl]-N-[1-benzyl-2-(4-{4-[(2-hydroxy-ethyl)-methyl-amino]-benzyl}-piperazin-1-yl)-2-oxo-ethyl]-3-(4-isopropoxy-phenyl)-acrylamide] | 98.2 | 1.4 | 3.9
17 | CCc1ccc(C=CC(=O)N(Cc2ccc(N3CCN(C(C)=O)CC3)cc2)[C@@H](Cc2ccccc2)C(=O)N2CCN(Cc3ccc(N(C)CCO)cc3)CC2)cc1 [Example 59, (S)-N-[4-(4-Acetyl-piperazin-1-yl)-benzyl]-N-[1-benzyl-2-(4-{4-[(2-hydroxy-ethyl)-methyl-amino]-benzyl}-piperazin-1-yl)-2-oxo-ethyl]-3-(4-ethyl-phenyl)-acrylamide] | 96.5 | 1.6 | 3.8

From US8889688B2, “Piperazines as antimalarial agents” (Actelion Pharmaceuticals Ltd., priority 2011, dated 2014)
